Results on three molecules are retold here after patent US8778975B2, “Helicobacter pylori eradicating agent having inhibitory activity on gastric acid secretion” (Link Geonomics, Inc., priority 2006, dated 2014).

The subject of this assay is Helicobacter pylori standard strains ATCC 43504, ATCC 43629, ATCC 43570 and clinically separated strains. Briefly: Anti-Helicobacter pylori activity (MIC), standard and clinically separated strains, Pharmacological Test Example 2. In kind it is cell-based. How it is done:
For the bacterium Helicobacter pylori, standard strains ATCC 43504, ATCC 43629 and ATCC 43570 were used to perform in vitro tests in Columbia agar medium. The bacteria were cultured at 37° C. and pH 7.0 for 3 days. On the 4th day, the minimum growth inhibitory concentration (MIC, μg/ml) was determined. Each of the specimens was dissolved in a 1% DMSO solution. Furthermore, amoxicillin and clarithromycin were used as control drugs of antibacterial substance. Further, the compound described in the article of Thomas C. Kuehler (J. Med.

The mark [1] stands for this setting: Clinically separated strain PT1045482.
[2] abbreviates: Clinically separated strain PT1045483.
The mark [3] stands for this setting: Clinically separated strain PT1045484.

The structures appear in SMILES notation. Values after ≈ are worked out from the molar mass of the structure shown. Bounds are passed on as bounds.

`CCCCCOc1ccnc(CSc2nc3ccccc3[nH]2)c1C` [Example 1, 2-[(4-n-pentyloxy-3-methylpyridin-2-yl)-methylthio]-1H-benzimidazole]: the MIC under setting [1] stood at 0.1 µg/mL (≈ 0.293 µM); the MIC under setting [2] was found to be 0.06 µg/mL (≈ 0.176 µM); the MIC under setting [3] is 0.06 µg/mL (≈ 0.176 µM); the MIC (Standard strain ATCC 43504) was determined as 0.1 µg/mL (≈ 0.293 µM); the MIC (Standard strain ATCC 43570) was < 0.015 µg/mL; the MIC (Standard strain ATCC 43629) came to 0.06 µg/mL (≈ 0.176 µM).

In the case of `CCCCCCOc1ccnc(CSc2nc3ccccc3[nH]2)c1C` [Example 2, 2-[(4-n-hexyloxy-3-methylpyridin-2-yl)-methylthio]-1H-benzimidazole], the MIC under setting [1] is 0.1 µg/mL (≈ 0.281 µM); the MIC under setting [2] was 0.1 µg/mL (≈ 0.281 µM); the MIC under setting [3] was 0.1 µg/mL (≈ 0.281 µM); the MIC (Standard strain ATCC 43504) is 0.1 µg/mL (≈ 0.281 µM); the MIC (Standard strain ATCC 43570) was 0.03 µg/mL (≈ 0.0844 µM); the MIC (Standard strain ATCC 43629) was found to be 0.1 µg/mL (≈ 0.281 µM).

For `CCCCCCCOc1ccnc(CSc2nc3ccccc3[nH]2)c1C` [Example 3, 2-[(4-n-heptyloxy-3-methylpyridin-2-yl)-methylthio]-1H-benzimidazole], the MIC is, setting by setting: under setting [1], 0.1 µg/mL (≈ 0.271 µM); under setting [2], 0.1 µg/mL (≈ 0.271 µM); under setting [3], 0.1 µg/mL (≈ 0.271 µM); (Standard strain ATCC 43504) 0.1 µg/mL (≈ 0.271 µM); (Standard strain ATCC 43570) 0.1 µg/mL (≈ 0.271 µM); (Standard strain ATCC 43629) 0.1 µg/mL (≈ 0.271 µM).
